From patent US20220387412A1, “Novel Superebastine Against Therapy Resistant Prostate Cancer” (University of Kentucky Research Foundation, priority 2019, published 2022)
“Also recorded” adds a separate entry of the source.

Tests used:
Assay type in all cases: cell-based
[1] = tested on: C4-2, C4-2R, LNCaP and M49C cells; assay: Resazurin cell viability assay, AR-positive cells and drug resistant counterparts; settings: 24 h, 10% FBS
Experimental: FIGS. 4A-B show graphs illustrating viability of androgen independent and androgen dependent cells treated with Super-EBS. (A) Androgen independent AR-positive C4-2 and C4-2R were treated with Super-EBS and vehicle control for 24 h in 10% FBS. Cell viability was measured by Resazurin assay. (B) Androgen dependent AR-positive LNCaP and M49C were treated under same condition and cell viability by Resazurin assay. *P<0.05; ** P<0.01 by the Student's t test.
In particular, cell viability of the AR-positive prostate cancer cells and their drug resistant counterparts was lower for the cells treated with Super-EBS.

PC-3 cells = assay: Resazurin cell viability assay, PC-3; settings: for cell viability (resazurin): PC-3, 10 μM
Experimental: (§1) Mean+SD shown. (*) Asterisk indicates […] by the Student's t-test.
(§2) Cell viability was then measured by resazurin assays. […] On the other hand, Super-EBS (10 μM) was effective in 24 hours. […] Mean+SD are shown. P<0.01 by Student's t-test.

[2] = tested on: CwR22Rv1 Par-4 knock-down cells; assay: γH2AX ICC / Western blot in Par-4 wild type and knock-down cells; settings: CwR22Rv1, 0.25 μM, 24 h
Experimental: FIGS. 8A-B show images illustrating that DNA damage induced by Super-EBS is mediated by Par-4. (A) CwR22Rv1 Par-4 wild type and knock-down cells were treated with Super-EBS (0.25 μM) for 24 h in medium containing 10% FBS, and then subjected to ICC for Par-4 (green) or YH2AX (Ser139) (red). (B) Western blot analysis for YH2AX, Par-4 and GAPDH was performed on lysates of Par-4 wild type (left) and knock-down (right) prostate cancer cells treated with Super-EBS (0.25 μM) for 24 h.
DNA damage induced by Super-EBS is mediated by Par-4.

[3] = tested on: CWR22Rv1 ENZ-sensitive cells; assay: Resazurin cell viability assay, CWR22Rv1 ENZ-sensitive; settings: CWR22Rv1 ENZ-sensitive, 24, 48 and 72 hours
Experimental: as §1, §2

prostate cancer cells = assay: Growth inhibition / cell death of prostate cancer cell cultures; settings: for cell death: within 24 h
Excerpt: RAGE activation promotes proliferation, invasive bone homing, and metastasis of PCa cells.

LNCaP cells = assay: Western blot for γH2AX (Ser139), DNA double stranded breaks, LNCaP; settings: 0.25 or 0.5 μM, 24 h
Experimental: (§3) FIGS. 7A-B show images illustrating that Super-EBS induces DNA damage in AR-positive prostate cancer cells. (A) C4-2 cells were treated with Super-EBS (0.5 or 1 μM) for 24 h in 10% FBS containing medium. […] Lysates were probed for YH2AX (Ser139 phosphorylation), a marker for DSB by Western blot analysis.
(§4) Super-EBS induces DNA damage in AR-positive prostate cancer cells. Lysates from AR-positive androgen-independent C4-2 cells (FIG. 7A) or androgen-dependent LNCaP cells (FIG. 7B) were treated with Super-EBS and subjected to Western blot analysis for γH2AX (Ser 139) positivity to detect DNA double stranded breaks (DSB). Super-EBS induced DSBs in both C4-2 and LNCaP cells (FIGS. 7A-B).

[4] = tested on: CWR22Rv1 ENZ-resistant cells; assay: ICC for active caspase 3 (apoptosis), CWR22Rv1 ENZ-resistant; settings: 0.1-5 μM, 24 hours
Experimental: (§5) FIGS. 5A-B show images and graphs illustrating that Super-EBS causes cell death by the activation of an apoptotic cascade. (A) AR-v7 expressing CwR22Rv1 and CwR22Rv1 Enz(R) cells were treated with Super-EBS (0.1-5 μM) in 10% FBS for 24 h and tested by ICC analysis for cleaved caspase 3 (green) and DAPI (blue). (B) Quantitative representation of ICC data. *P<0.05; **P<0.01 by Student's t test.
(§6) After determining that the cells were sensitive to Super-EBS, they were tested to determine whether Super-EBS inhibited cell viability by inducing apoptosis. CWR22Rv1 ENZ-sensitive and CWR22Rv1 ENZ-resistant cell lines were treated with vehicle, 0.1-, 0.5-, 1- and 5-μM of Super-EBS for 24 hours. The cells were then subjected to immunocytochemical (ICC) analysis for active caspase 3 (green fluorescence) to detect apoptotic cells, and 4, 6-diamidino-2-phenylindole (DAPI) staining (blue fluorescence) to reveal the cell nucleus. Cells were scored for apoptosis under a confocal microscope and percent apoptosis was calculated. […] Mean+SD are shown. P<0.01 by Student's t-test.
(§7) Super-EBS causes cell death by the activation of an apoptotic cascade. […] CwR22Rv1 Enz(R) cells were also tested with Super-EBS for 24 h and subjected to FACS analysis using Annexin V and propidium iodide (PI) staining.

CwR22Rv1 Enz(R) cells = assay: Annexin V-PI staining and FACS analysis for apoptotic cells; settings: 2 or 4 μM, 24 h
Experimental: CwR22Rv1 Enz(R) cells were treated with Super-EBS (2 or 4 μM) for 24 h in 10% FBS containing medium. Live cells were subjected to Annexin V-PI staining and FACS analysis for apoptotic cells. The percentage on the figure indicates the percentage of cells post treatment.
as §7

[5] = tested on: CWR22Rv1 ENZ-resistant cells; assay: Resazurin cell viability assay, CWR22Rv1 ENZ-resistant; settings: CWR22Rv1 ENZ-resistant, 24, 48 and 72 hours
Experimental: as §1, §2

C4-2 cells = assay: Western blot for γH2AX (Ser139), DNA double stranded breaks, C4-2; settings: C4-2, 0.5 or 1 μM, 24 h
Experimental: as §3, §4

[6] = tested on: CWR22Rv1 ENZ-sensitive cells; assay: ICC for active caspase 3 (apoptosis), CWR22Rv1 ENZ-sensitive; settings: 0.1-5 μM, 24 hours
Experimental: as §5, §6, §7

Compound	cytotoxic effect compared with EBS ([1]; 10 μM)	susceptibility of LNCaP and M49C versus C4-2 and C4-2R to cytotoxic action [1]	cell viability (resazurin) (PC-3 cells; 24 hours)	cell viability (resazurin), effective concentration (PC-3 cells; PC-3, 24, 48 and 72 hours)	γH2AX positivity after Par-4 knock-down [2]	cell viability (resazurin), effective concentration [3]	concentration inducing apoptosis and growth inhibition (prostate cancer cells; ENZ-resistant as well as ENZ-sensitive prostate cancer cells)	cell death (prostate cancer cells; ENZ-resistant prostate cancer cell cultures)	cell death (prostate cancer cells; ENZ-sensitive prostate cancer cell cultures)	potency in killing cells compared with EBS (prostate cancer cells; parental and ENZ-resistant prostate cancer cell lines)	DNA double stranded breaks (γH2AX Ser139) (LNCaP cells)	apoptosis (active caspase 3 ICC) relative to vehicle control [4]	cells in the early and late stages of apoptosis (Annexin V/PI FACS) (CwR22Rv1 Enz(R) cells)	cell viability (resazurin), effective concentration [5]	DNA double stranded breaks (γH2AX Ser139) (C4-2 cells)	apoptosis (active caspase 3 ICC) relative to vehicle control [6]	cell viability (resazurin) (PC-3 cells; 72 hours)
CC(C)(C)c1ccc(/C(CCCN2CCC(OC(c3ccccc3)c3ccccc3)CC2)=N\C(=N)N)cc1 [Super-EBS]	more pronounced than EBS	more susceptible	effective	effective at nanomolar concentrations	decrease in the YH2AX positivity	effective at nanomolar concentrations	nanomolar concentrations	95-98%	95-98%	more potent than EBS	induced DSBs	significantly higher levels; also recorded: dose dependent increase in apoptotic cells	dose dependent increase	effective at nanomolar concentrations	induced DSBs	significantly higher levels; also recorded: dose dependent increase in apoptotic cells	
CC(C)(C)c1ccc(C(=O)CCCN2CCC(OC(c3ccccc3)c3ccccc3)CC2)cc1 [EBS, 4-[4-(Diphenylmethoxy)-1-piperidinyl]-1-[4-(2-methyl-2-propanyl)phenyl]-1-butanone, reference compound]											but not EBS induced significant amount of DSBs						sensitive
